Broadly, the melting point is the temperature, or range, at which the solid turns liquid. A word on the EC50: it is the midpoint of the concentration-response curve. A higher EC50 goes with weaker potency.

The test system of one data set is Bmi-1 protein. The data set can be described thus: Sandwich ELISA Assay: Bmi-1 protein level in HT-1080 cells treated with test compounds. The data set is classed as cell-based. In short, it runs like this:
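HT-1080 cells exposed to compounds (final DMSO 0.5%) for 40-48 h at 37° C, 5% CO2, then lysed. Bmi-1 quantified by sandwich ELISA (mouse anti-Bmi-1 capture, rabbit anti-Bmi-1 detection, HRP anti-rabbit, TMB), read at OD450 with OD570 reference, against recombinant GST-Bmi-1 standard curve (0-8000 pg/mL).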
Background: In an ELISA, binding on a coated surface is turned into a signal by an enzyme label.

SMILES strings stand for the structures.

Consider `Nc1nc(Nc2ccc(C(F)(F)F)cc2)nc(-n2c(C(F)F)nc3ccccc32)n1` [Cpd 102, 6-[2-(difluoromethyl)-1H-benzimidazol-1-yl]-N-[4-(trifluoromethyl)phenyl]-1,3,5-triazine-2,4-diamine], for which the melting point was in the range of 197 to 199 °C. The EC50 in the data set with Bmi-1 protein was in the range of 10 to 100 nM.

The compound `Nc1nc(Nc2ccc(OC(F)F)c(F)c2)nc(-n2c(CF)nc3ccccc32)n1` [Cpd 109, N-[4-(difluoromethoxy)-3-fluorophenyl]-6-[2-(fluoromethyl)-1H-benzimidazol-1-yl]-1,3,5-triazine-2,4-diamine] showed a melting point of 166 to 168 °C. For the same compound, the EC50 with Bmi-1 protein fell in the range of 10 to 100 nM.

For `Nc1nc(Nc2ccc(OC(F)F)cc2)nc(-n2c(C(F)F)nc3ccccc32)n1` [Cpd 103, N-[4-(difluoromethoxy)phenyl]-6-[2-(difluoromethyl)-1H-benzimidazol-1-yl]-1,3,5-triazine-2,4-diamine], the melting point was in the range of 197 to 199 °C. The EC50 with Bmi-1 protein lay in the range of 10 to 100 nM.

For `Nc1nc(Nc2ccc(OC(F)F)cc2)nc(-n2c(C3CC3)nc3c(F)cc(F)cc32)n1` [Cpd 89, 6-(2-cyclopropyl-4,6-difluoro-1H-benzimidazol-1-yl)-N-[4-(difluoromethoxy)phenyl]-1,3,5-triazine-2,4-diamine], the melting point lay in the range of 181 to 183 °C. The EC50 in the data set with Bmi-1 protein lay within 10 to 100 nM.

`Nc1nc(Nc2ccc(OC(F)F)c(F)c2)nc(-n2c(C3CC3)nc3c(F)cc(F)cc32)n1` [Cpd 90, 6-(2-cyclopropyl-4,6-difluoro-1H-benzimidazol-1-yl)-N-[4-(difluoromethoxy)-3-fluorophenyl]-1,3,5-triazine-2,4-diamine] had a melting point of 196 to 198 °C. In the data set with Bmi-1 protein, this compound returned a 50% effective concentration (EC50) of 10 to 100 nM.

`Nc1nc(Nc2ccc(C(F)(F)F)nc2)nc(-n2c(CF)nc3ccccc32)n1` [Cpd 111, 6-[2-(fluoromethyl)-1H-benzimidazol-1-yl]-N-[6-(trifluoromethyl)pyridin-3-yl]-1,3,5-triazine-2,4-diamine] came in with a melting point of 178 to 180 °C. In the data set on Bmi-1 protein, this compound came in with a concentration giving a half-maximal response (EC50) of 100 to 3000 nM.
